# Columns and labels:
# A208 cells = experiment: Ara-C concentration killing ~85% of adherent cells (preliminary experiments); assay type: cell-based, human; conditions: Ara-C for 3 days
# Text: (§1) FIG. 1. ALCAM correlates with detachment-induced therapy resistance. Relative ALCAM expression levels in melanoma measured by (A) microarray analysis and (B) RT-PCR. Expression levels are normalized to M21. Values are means±SE. (C) Relative ALCAM expression versus cell survival in additional melanoma cell lines. The graph represents detachment-induced resistance (“delta”) as the fold difference in survival between suspended versus adherent cells. Survival of adherent and suspended cells after treatment with chemotherapy (Ara-C) for 3 days was determined by replating on fibronectin. Concentrations of Ara-C were chosen for each cell line to kill ˜85% of adherent cells as determined in preliminary experiments. Concentrations were: A208 cells, 0.5 μM; A375.S2 cells, 0.3 μM; RPMI7951 cells, 5 μM, FM3: 10 μM). (D) Delta was plotted against ALCAM message level determined by RT-PCR. Values are means±SE, n>3.
# (§2) The human melanoma cell lines; M21, VMM12, VMM15, VMM1, VMM5A, VMM18 were cultured as described [Molhoek, 2008; Schwartz, 2008]. RPMI7951, A208, and A375.S2 were cultured in DMEM/F12 medium supplemented with 5% heat inactivated fetal bovine serum, 15 mM HEPES and penicillin-streptomycin. FM3 cells were grown in DMEM supplemented with 10% fetal bovine serum and penicillin-streptomycin. Cell survival assays and colony assay were performed as described before [Schwartz, 2008].
# A375.S2 cells = experiment: as above; assay type: cell-based, human; conditions: Ara-C for 3 days
# Text: as §1, §2
# FM3 = experiment: as above; assay type: cell-based, human; conditions: Ara-C for 3 days
# Text: as §1, §2
# RPMI7951 cells = experiment: as above; assay type: cell-based, human; conditions: Ara-C for 3 days
# Text: as §1, §2
# subcutaneous M21 tumors [1] = experiment: Mouse tumor growth, subcutaneous M21 tumors, AZN-L50 and/or cisplatin; assay type: in vivo; conditions: SCID mice, s.c. M21 tumors, i.p., two treatments ~1 week apart; cisplatin 8 then 3.5 mg/kg, AZN-L50 100 μg/mouse
# Procedure: (A) Mice with palpable subcutaneous tumors were treated with cisplatin alone (CD), AZN-L50 (AZN) alone, or CD plus AZN-L50 (AZN+CD). Mice received 2 treatments 1 week apart. Tumor volume was then followed. Values are means±SE; n=8-11 mice.
# Tumor generation and measurement was done as described [Schwartz, 2008]. Briefly male SCID mice (Charles River) were injected s.c. with 100,000 M21 cells. When tumors were first palpable, mice were injected I.P with cisplatin (8 mg/kg: first week and 3.5 mg/kg: second week), AZN-L50 (100 μg/mouse) or both for 2 consecutive weeks. The tumor volumes were recorded weekly.
# All statistical analyses were done as described [Schwartz, 2008]. Briefly repeated measures models were used to compare tumor growth in control, cisplatin alone, AZN-L50 alone and cisplatin+AZN-L50 groups. These models account for the correlations among measurements taken from the same animal over time. We used linear models for the log-transformed tumor growth and the assumption that the correlation between measurements decreases with the amount of time between the measurements. F-tests based on contrasts were used to make specific comparisons between groups. All analyses were carried out in SAS 9.2 and GAUSS 10.0.
# subcutaneous M21 tumors [2] = experiment: Mouse tumor growth, subcutaneous M21 tumors, FN-COMP and/or cisplatin; assay type: in vivo; conditions: SCID mice; for Tumor growth / tumor size: s.c. M21 tumors, i.p., three treatments ~1 week apart, cisplatin 8 then 3.5 mg/kg, FN-COMP 500 μg/mouse
# Procedure: (§3) FIG. 4, Example 2—FN-COMP in chemotherapy in vivo. (A) SCID mice were injected with 500 μg of FN-COMP. At the indicated times, plasma was analyzed by western blotting for fibronectin (FN). (B) Mice with palpable subcutaneous tumors were treated with cisplatin (CD), FN-COMP (FNC) alone, or CD plus FNC. Mice received 3 successive treatments 1 week apart. Tumor volumes were then followed. Values are means±SE, n=10-15 mice. For CD vs. CD+FNC: *P<0.0031. The error bars are asymmetric because the analysis was done in the log-scale, and then converted back to the original scale. Qualitatively similar results were obtained in 2 independent experiments.
# (§4) Tumor generation in 6-8 wk old male SCID mice (Charles River Laboratories) and tumor measurement were done as described. When tumors were first palpable, mice were injected intraperitoneally (i.p.) with cisplatin (8 mg/kg: first week and 3.5 mg/kg: second and third weeks), FN-COMP (500 μg/mouse) or both for 3 consecutive weeks. The tumor volumes were recorded weekly. To assay levels in the blood, SCID mice with no tumors were injected intraperitoneally with FN-COMP (500 μg/mouse). Blood was collected at 0, 3, 6, or 24 h post injection. Plasma was subjected to Western blotting with the indicated antibodies. All animal procedures were done according to our institutional Animal Care and Use Committee guidelines.
# Statistical analyses were done as described. Briefly, repeated measures models were used to compare tumor growth in control, cisplatin alone, FN-COMP alone and cisplatin+FN-COMP groups. These models account for the correlations among measurements taken from the same animal over time. We used linear models for the log-transformed tumor growth and the assumption that the correlation between measurements decreases with the amount of time between the measurements. F-tests based on contrasts were used to make specific comparisons between groups. All analyses were carried out in SAS 9.2 and GAUSS 10.0.
# human melanoma = conditions: mouse xenografts of human melanoma, previous report [7]; cited from earlier work
# [3] = tested on: focal adhesion kinase and p130cas; conditions: observed at nM concentrations; cited from earlier work
# M21 melanoma cells [4] = experiment: Short term survival assay after chemotherapy, adherent or suspended cells; assay type: cell-based, human; conditions: M21, siRNA transfected, 10 μM Ara-C, 3 days
# Procedure: (§5) FIG. 2. ALCAM mediates detachment-induced therapy resistance. (A) ALCAM expression by RT-PCR in M21 melanoma cells after transfection with indicated siRNAs. Values are means±SE. (B) Proliferation of M21 cells expressing either ALCAM or control siRNA. 5×10^5 cells were plated and after 72 h counted. Values are means±SD, (C) Short term survival assays—cells transfected with the indicated siRNAs were treated with chemotherapy (M21:10 μM Ara-C; VMM12:10 μM cisplatin) while adherent (Ad) or suspended (Sus). Cell survival was assayed after 3 days. Values are means±SE, n>3. (D) Adherent or suspended M21 cells were treated with 10 μM Ara-C, then washed and re-plated, and colonies counted after 10 days. Values are means±SD, n=3. **P<0.01, *P<0.05
# (§6) We next asked whether ALCAM might play a causal role in chemoresistance induced by loss of integrin-mediated cell adhesion. We therefore designed and tested several siRNA sequences. […] We next examined chemosensitivity in adherent and suspended M21 and VMM12 melanoma lines. Cells transfected with two distinct ALCAM siRNAs (#10 or #11), or control siRNA, were treated with chemotherapy for 3 days, then survival assayed by re-plating on fibronectin. […] Control siRNA had no effect in either condition.
# (§7) ALCAM can mediate homophilic adhesion, as well as heterophilic adhesion to CD6, both of which are blocked by a monoclonal antibody, AZN-L50 (van Kempen J Biol Chem. 2001; 276:25783-90; Zimmerman Blood. 2006; 107:3212-20). […] M21 and VMM12 cells were subject to chemotherapy for 72 h while adherent or suspended, in the presence or absence of AZN-L50. Survival was then assayed as before.
# as §2
# VMM12 melanoma cells [5] = experiment: as above; assay type: cell-based, human; conditions: VMM12, siRNA transfected, 10 μM cisplatin, 3 days
# Procedure: as §5, §6, §7, §2
# integrin signaling = experiment: Tyrosine phosphorylation in suspended cells, Western blot with pY20; assay type: cell-based; conditions: suspended M21 melanoma or mouse 3T3 cells, FN-COMP 40 μg/ml
# Procedure: FIG. 2, Example 2—FN-COMP stimulates signaling in vitro. Either M21 melanoma or mouse 3T3 cells were left adherent (Ad) or detached and kept in suspension (sus) for 1 h. Suspended cells were either treated with of FN-COMP at 40 μg/ml for indicated times or left untreated. Lysates were analyzed by Western blotting using antiphosphotyrosine antibody pY20. Tubulin was used as a loading control. n=2.
# Cells were lysed as previously described. Proteins were separated on SDS-PAGE gels, transferred, blocked, and probed with the indicated primary antibodies. Blots were washed, incubated with secondary antibodies and developed using ECL reagents (Pierce) and film (Kodak). FN-COMP under reducing and non-reducing condition was loaded on SDSPAGE gels and was subjected electrophoresis. Gels were stained with Coomassie Blue to visualize the bands.
# M21 melanoma cells [6] = experiment: Cell survival of non-adherent cells after FN-COMP and X-irradiation; assay type: cell-based, human; conditions: M21 suspended, FN-COMP 40 μg/ml 30-45 min, then 10 Gy X-irradiation, survival 72 h later
# Procedure: (§8) (A) M21, (B) VMM12 or (C) VMM18 melanoma cells were left adherent (Ad) or detached and kept in suspension (Sus) for 1 h. Suspended cells were then treated with of FN-COMP (FNC) at 40 μg/ml for 30-45 min followed by treatment with either 10 Gy X-irradiation (A) or Ara-C at 10 μM (B and C). Cell survival was assayed 72 h later. Values are means } SE, n=3. *P<0.05.
# (§9) The human melanoma cell lines; M21, VMM12, VMM18 were cultured as described. Cell survival assays and colony assay were performed as described. Cells were irradiated using an X-ray irradiator at a dose rate of 3.3 Gy/min.
# VMM12 melanoma cells [7] = experiment: Cell survival of non-adherent cells after FN-COMP and Ara-C; assay type: cell-based, human; conditions: VMM12 suspended, FN-COMP 40 μg/ml 30-45 min, then Ara-C 10 μM, survival 72 h later
# Procedure: as §8, §9
# VMM18 melanoma cells = experiment: as above; assay type: cell-based, human; conditions: VMM18 suspended, FN-COMP 40 μg/ml 30-45 min, then Ara-C 10 μM, survival 72 h later
# Procedure: as §8, §9
# [8] = FN-COMP levels in blood after intraperitoneal injection, plasma Western blot for fibronectin; assay type: in vivo; conditions: SCID mice, 500 μg/mouse i.p.
# Procedure: as §3, §4
compound,measurement,setting,value
"Nc1ccn([C@@H]2O[C@H](CO)[C@@H](O)[C@@H]2O)c(=O)n1 [Ara-C, 1-β-D-arabinofuranosylcytosine]",Concentration of Ara-C chosen to kill ˜85% of adherent cells,A208 cells,0.5 µM
same,Concentration of Ara-C chosen to kill ˜85% of adherent cells,A375.S2 cells,0.3 µM
same,Concentration of Ara-C chosen to kill ˜85% of adherent cells,FM3,10 µM
same,Concentration of Ara-C chosen to kill ˜85% of adherent cells,RPMI7951 cells,5 µM
"N.N.[Cl][Pt][Cl] [cisplatin, cis-Dichlorodiamine platinum(II)]",Tumor growth / tumor size,subcutaneous M21 tumors [1],Neither AZN-L50 alone nor cisplatin alone had significant effects on tumor growth
same,Tumor growth / tumor size,subcutaneous M21 tumors [2],Neither FN-COMP alone nor cisplatin alone had significant effects on tumor growth
contortrostatin,Therapeutic responses when combined with chemotherapy,human melanoma,improved therapeutic responses
same,Tyrosine phosphorylation of integrin targets,[3],strongly increased
"ALCAM siRNA #11: siRNA that targets ALCAM, 5′-CACCTGCTCGGTGACATATTA-3′ (SEQ ID NO:4), described before [Hong, 2010] (other strand not cited, further chemistry not given here)","Cell survival, adherent cells",M21 melanoma cells [4],no effect
same,"Cell survival, suspended cells",M21 melanoma cells [4],drastically reduced cell survival
same,"Cell survival, adherent cells",VMM12 melanoma cells [5],no effect
same,"Cell survival, suspended cells",VMM12 melanoma cells [5],drastically reduced cell survival
FN-COMP: homo-pentameric construct of fibronectin peptides (type III repeats 5-11) linked by the assembly domain of COMP (amino acid residues 27-84),Tyrosine phosphorylation (characteristic of integrin signaling),integrin signaling,"increased tyrosine phosphorylation of bands around 60, 75 and 125 kD"
same,Response to therapy (radiosensitivity) of non-adherent cells,M21 melanoma cells [6],improved chemo and radiosensitivity
same,Response to therapy (chemosensitivity) of non-adherent cells,VMM12 melanoma cells [7],improved chemo and radiosensitivity
same,Response to therapy (chemosensitivity) of non-adherent cells,VMM18 melanoma cells,no effect
same,Stability in blood after injection,[8],at least 24 h
same,Time of appearance in the blood,[8],≤ 3 h
same,Side effects in the mice,subcutaneous M21 tumors [2]; 3 weekly i.p. treatments,not observed
same,Tumor growth / tumor size,subcutaneous M21 tumors [2],Neither FN-COMP alone nor cisplatin alone had significant effects on tumor growth
"ALCAM siRNA #10: siRNA that targets ALCAM, 5-GGAAACUAUGUCUGCGAAA-3 (SEQ ID NO:5) (listed as RNA, chemistry not given here)","Cell survival, adherent cells",M21 melanoma cells [4],no effect
same,"Cell survival, suspended cells",M21 melanoma cells [4],drastically reduced cell survival
same,"Cell survival, adherent cells",VMM12 melanoma cells [5],no effect
same,"Cell survival, suspended cells",VMM12 melanoma cells [5],drastically reduced cell survival

# Reference: patent US20160067314A1, “COMPOSITIONS AND METHODS FOR INHIBITING CHEMORESISTANCE IN CANCER AND IMPROVING RESPONSE TO THERAPY” (UNIVERSITY OF VIRGINIA PATENT FOUNDATION, priority 2013, published 2016)
